Experimental data: ChEMBL document CHEMBL1135329, “DNA binding ligands with excellent antibiotic potency against drug-resistant gram-positive bacteria” (Bioorg Med Chem Lett, 2002)
≈ marks a conversion by molar mass, not a printed value.

Test system: Candida albicans
Assay: Antifungal activity was determined against Candida albicans
Format: functional
Conditions: not given

Point of comparison: `Cn1cc(NC(=O)c2cc(NC(=O)c3cc(NC(=O)c4nsc(NCCCNC5CCCCC5)c4Cl)cn3C)cn2C)cc1C(=O)NCCN1CCOCC1`, MIC 16 mg/L (≈ 20.1 µM). Against it:
- CN(C)CCCCNC(=O)c1cc(NC(=O)c2cc(NC(=O)c3cc(NC(=O)c4nsc(NCCCN)c4Cl)cn3C)cn2C)cn1C — 64-fold lower, 0.25 mg/L (≈ 0.357 µM)
- Cn1cc(NC(=O)c2cc(NC(=O)c3cc(NC(=O)c4nsc(NCCCNC5CCCCC5)c4Cl)cn3C)cn2C)cc1C(=O)NCCCCN — 4-fold lower, 4 mg/L (≈ 5.3 µM)
- Cn1cc(NC(=O)c2cc(NC(=O)c3cc(NC(=O)c4nsc(NCCN5CCOCC5)c4Cl)cn3C)cn2C)cc1C(=O)NCCCO — higher, > 32 mg/L
- Cn1cc(NC(=O)c2cc(NC(=O)c3cc(NC(=O)c4nsc(NCCCCN)c4Cl)cn3C)cn2C)cc1C(=O)NCCN1CCOCC1 — 2-fold lower, 8 mg/L (≈ 11 µM)

Test system: Escherichia coli
Assay: Binding to the sequence 5'-ACAATTAA-3', a site proximal to the […] RNA polymerase subunit binding site within the Escherichia coli Trc promoter.
Format: functional
Conditions: read-out: Kd app

Point of comparison: `Cn1cc(NC(=O)c2cc(NC(=O)c3cc(NC(=O)c4nsc(NCCN5CCOCC5)c4Cl)cn3C)cn2C)cc1C(=O)NCCCO`, Kd 32.1 nM. Against it:
- CN(C)CCCCNC(=O)c1cc(NC(=O)c2cc(NC(=O)c3cc(NC(=O)c4nsc(NCCCN)c4Cl)cn3C)cn2C)cn1C — 61-fold lower, 0.53 nM
- Cn1cc(NC(=O)c2cc(NC(=O)c3cc(NC(=O)c4nsc(NCCCNC5CCCCC5)c4Cl)cn3C)cn2C)cc1C(=O)NCCCCN — 16-fold lower, 2 nM
- Cn1cc(NC(=O)c2cc(NC(=O)c3cc(NC(=O)c4nsc(NCCCNC5CCCCC5)c4Cl)cn3C)cn2C)cc1C(=O)NCCN1CCOCC1 — 54-fold lower, 0.59 nM
- Cn1cc(NC(=O)c2cc(NC(=O)c3cc(NC(=O)c4nsc(NCCCCN)c4Cl)cn3C)cn2C)cc1C(=O)NCCN1CCOCC1 — 87-fold lower, 0.37 nM

Test system: Enterococcus faecalis
Assay: Antimicrobial activity was determined against vancomycin-resistant Enterococcus faecalis (VREF 51559)
Format: functional
Conditions: not given

Point of comparison: `Cn1cc(NC(=O)c2cc(NC(=O)c3cc(NC(=O)c4nsc(NCCCNC5CCCCC5)c4Cl)cn3C)cn2C)cc1C(=O)NCCN1CCOCC1`, MIC 16 mg/L (≈ 20.1 µM). Against it:
- CN(C)CCCCNC(=O)c1cc(NC(=O)c2cc(NC(=O)c3cc(NC(=O)c4nsc(NCCCN)c4Cl)cn3C)cn2C)cn1C — 64-fold lower, 0.25 mg/L (≈ 0.357 µM)
- Cn1cc(NC(=O)c2cc(NC(=O)c3cc(NC(=O)c4nsc(NCCCNC5CCCCC5)c4Cl)cn3C)cn2C)cc1C(=O)NCCCCN — the same, 16 mg/L (≈ 21.2 µM)
- Cn1cc(NC(=O)c2cc(NC(=O)c3cc(NC(=O)c4nsc(NCCN5CCOCC5)c4Cl)cn3C)cn2C)cc1C(=O)NCCCO — higher, > 32 mg/L
- Cn1cc(NC(=O)c2cc(NC(=O)c3cc(NC(=O)c4nsc(NCCCCN)c4Cl)cn3C)cn2C)cc1C(=O)NCCN1CCOCC1 — the same, 16 mg/L (≈ 22 µM)

Test system: Enterococcus faecalis
Assay: Antimicrobial activity was determined against vancomycin-susceptible Enterococcus faecalis (VSEF 29212)
Format: functional
Conditions: not given

Point of comparison: `Cn1cc(NC(=O)c2cc(NC(=O)c3cc(NC(=O)c4nsc(NCCCCN)c4Cl)cn3C)cn2C)cc1C(=O)NCCN1CCOCC1`, MIC 4 mg/L (≈ 5.49 µM). Against it:
- CN(C)CCCCNC(=O)c1cc(NC(=O)c2cc(NC(=O)c3cc(NC(=O)c4nsc(NCCCN)c4Cl)cn3C)cn2C)cn1C — 32-fold lower, 0.125 mg/L (≈ 0.179 µM)
- Cn1cc(NC(=O)c2cc(NC(=O)c3cc(NC(=O)c4nsc(NCCCNC5CCCCC5)c4Cl)cn3C)cn2C)cc1C(=O)NCCCCN — 2-fold lower, 2 mg/L (≈ 2.65 µM)
- Cn1cc(NC(=O)c2cc(NC(=O)c3cc(NC(=O)c4nsc(NCCCNC5CCCCC5)c4Cl)cn3C)cn2C)cc1C(=O)NCCN1CCOCC1 — 2-fold lower, 2 mg/L (≈ 2.51 µM)
- Cn1cc(NC(=O)c2cc(NC(=O)c3cc(NC(=O)c4nsc(NCCN5CCOCC5)c4Cl)cn3C)cn2C)cc1C(=O)NCCCO — 8-fold higher, 32 mg/L (≈ 44.7 µM)

Test system: Staphylococcus aureus
Assay: Antimicrobial activity was determined against methicillin-resistant Staphylococcus aureus (MRSA 27660)
Format: functional
Conditions: not given

Point of comparison: `Cn1cc(NC(=O)c2cc(NC(=O)c3cc(NC(=O)c4nsc(NCCCCN)c4Cl)cn3C)cn2C)cc1C(=O)NCCN1CCOCC1`, MIC 4 mg/L (≈ 5.49 µM). Against it:
- CN(C)CCCCNC(=O)c1cc(NC(=O)c2cc(NC(=O)c3cc(NC(=O)c4nsc(NCCCN)c4Cl)cn3C)cn2C)cn1C — 16-fold lower, 0.25 mg/L (≈ 0.357 µM)
- Cn1cc(NC(=O)c2cc(NC(=O)c3cc(NC(=O)c4nsc(NCCCNC5CCCCC5)c4Cl)cn3C)cn2C)cc1C(=O)NCCCCN — 2-fold lower, 2 mg/L (≈ 2.65 µM)
- Cn1cc(NC(=O)c2cc(NC(=O)c3cc(NC(=O)c4nsc(NCCCNC5CCCCC5)c4Cl)cn3C)cn2C)cc1C(=O)NCCN1CCOCC1 — 2-fold higher, 8 mg/L (≈ 10 µM)

Test system: Staphylococcus aureus
Assay: Antimicrobial activity was determined against methicillin-susceptible S. aureus(MSSA 29213)
Format: functional
Conditions: not given

Point of comparison: `Cn1cc(NC(=O)c2cc(NC(=O)c3cc(NC(=O)c4nsc(NCCCNC5CCCCC5)c4Cl)cn3C)cn2C)cc1C(=O)NCCN1CCOCC1`, MIC 2 mg/L (≈ 2.51 µM). Against it:
- CN(C)CCCCNC(=O)c1cc(NC(=O)c2cc(NC(=O)c3cc(NC(=O)c4nsc(NCCCN)c4Cl)cn3C)cn2C)cn1C — 4-fold lower, 0.5 mg/L (≈ 0.714 µM)
- Cn1cc(NC(=O)c2cc(NC(=O)c3cc(NC(=O)c4nsc(NCCCNC5CCCCC5)c4Cl)cn3C)cn2C)cc1C(=O)NCCCCN — the same, 2 mg/L (≈ 2.65 µM)
- Cn1cc(NC(=O)c2cc(NC(=O)c3cc(NC(=O)c4nsc(NCCN5CCOCC5)c4Cl)cn3C)cn2C)cc1C(=O)NCCCO — higher, > 32 mg/L
- Cn1cc(NC(=O)c2cc(NC(=O)c3cc(NC(=O)c4nsc(NCCCCN)c4Cl)cn3C)cn2C)cc1C(=O)NCCN1CCOCC1 — 2-fold higher, 4 mg/L (≈ 5.49 µM)

Test system: Streptococcus pneumoniae
Assay: Antimicrobial activity was determined against penicillin-resistant Streptococcus pneumoniae (PRSP 51422)
Format: functional
Conditions: not given

Point of comparison: `Cn1cc(NC(=O)c2cc(NC(=O)c3cc(NC(=O)c4nsc(NCCCCN)c4Cl)cn3C)cn2C)cc1C(=O)NCCN1CCOCC1`, MIC 0.5 mg/L (≈ 0.687 µM). Against it:
- CN(C)CCCCNC(=O)c1cc(NC(=O)c2cc(NC(=O)c3cc(NC(=O)c4nsc(NCCCN)c4Cl)cn3C)cn2C)cn1C — 4-fold lower, 0.125 mg/L (≈ 0.179 µM)
- Cn1cc(NC(=O)c2cc(NC(=O)c3cc(NC(=O)c4nsc(NCCCNC5CCCCC5)c4Cl)cn3C)cn2C)cc1C(=O)NCCCCN — 32-fold higher, 16 mg/L (≈ 21.2 µM)
- Cn1cc(NC(=O)c2cc(NC(=O)c3cc(NC(=O)c4nsc(NCCCNC5CCCCC5)c4Cl)cn3C)cn2C)cc1C(=O)NCCN1CCOCC1 — 2-fold lower, 0.25 mg/L (≈ 0.314 µM)
- Cn1cc(NC(=O)c2cc(NC(=O)c3cc(NC(=O)c4nsc(NCCN5CCOCC5)c4Cl)cn3C)cn2C)cc1C(=O)NCCCO — 2-fold higher, 1 mg/L (≈ 1.4 µM)

Test system: Streptococcus pneumoniae
Assay: Antimicrobial activity was determined against penicillin-susceptible Streptococcus pneumoniae (PSSP 49619)
Format: functional
Conditions: not given

Point of comparison: `Cn1cc(NC(=O)c2cc(NC(=O)c3cc(NC(=O)c4nsc(NCCCNC5CCCCC5)c4Cl)cn3C)cn2C)cc1C(=O)NCCCCN`, MIC 1 mg/L (≈ 1.33 µM). Against it:
- CN(C)CCCCNC(=O)c1cc(NC(=O)c2cc(NC(=O)c3cc(NC(=O)c4nsc(NCCCN)c4Cl)cn3C)cn2C)cn1C — 16-fold lower, 0.064 mg/L (≈ 0.0914 µM)
- Cn1cc(NC(=O)c2cc(NC(=O)c3cc(NC(=O)c4nsc(NCCCNC5CCCCC5)c4Cl)cn3C)cn2C)cc1C(=O)NCCN1CCOCC1 — 16-fold lower, 0.062 mg/L (≈ 0.0779 µM)
- Cn1cc(NC(=O)c2cc(NC(=O)c3cc(NC(=O)c4nsc(NCCN5CCOCC5)c4Cl)cn3C)cn2C)cc1C(=O)NCCCO — 32-fold higher, 32 mg/L (≈ 44.7 µM)
- Cn1cc(NC(=O)c2cc(NC(=O)c3cc(NC(=O)c4nsc(NCCCCN)c4Cl)cn3C)cn2C)cc1C(=O)NCCN1CCOCC1 — 2-fold lower, 0.5 mg/L (≈ 0.687 µM)
